Experimental data published in patent EP1333824B1, “TREATMENT OF SEXUAL DYSFUNCTION WITH BOMBESIN RECEPTOR ANTAGONISTS” (Warner-Lambert Company LLC, priority 2000, dated 2002).

What was measured:
[1] = biological target: T1, human NMB receptor (BB1) (Homo sapiens, UniProt P28336); assay: BB1 binding assay ([125I][Tyr4]bombesin, CHO-K1 cell membranes)
T1 construct: expressed in transfected cells
Experimental: (§1) In the following experiments, measurement of BB1 and BB2 binding was as follows. […] The final pellet was resuspended in assay buffer to a final cell concentration of 1.5 × 10^5/mL. […] Nonspecific binding was defined by 1µM bombesin. […] Radioactivity bound was determined using a gamma counter.
(§2) All competition data was analysed using nonlinear regression utilizing iterative curve-plotting procedures in Prism® (GraphPad Software Inc., San Diego, USA).

[2] = biological target: T2, human GRP receptor (BB2) (Homo sapiens, UniProt P30550); assay: BB2 binding assay ([125I][Tyr4]bombesin, CHO-K1 cell membranes)
T2 construct: expressed in transfected cells
T2 sequence (P30550 whole entry): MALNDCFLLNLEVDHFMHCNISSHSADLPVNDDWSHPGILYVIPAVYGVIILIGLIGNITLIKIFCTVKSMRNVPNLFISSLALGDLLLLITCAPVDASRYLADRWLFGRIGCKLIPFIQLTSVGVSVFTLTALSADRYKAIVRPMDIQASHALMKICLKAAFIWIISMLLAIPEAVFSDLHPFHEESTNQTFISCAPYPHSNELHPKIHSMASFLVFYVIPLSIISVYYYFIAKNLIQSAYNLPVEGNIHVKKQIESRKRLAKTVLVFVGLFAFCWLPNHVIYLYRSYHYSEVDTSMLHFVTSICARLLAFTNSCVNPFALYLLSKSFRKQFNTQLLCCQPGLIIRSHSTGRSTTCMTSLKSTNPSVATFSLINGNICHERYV
Experimental: as §1, §2

[3] = Table 7, N-terminal sulfonamide derivatives

T1 sequence (P28336 whole entry): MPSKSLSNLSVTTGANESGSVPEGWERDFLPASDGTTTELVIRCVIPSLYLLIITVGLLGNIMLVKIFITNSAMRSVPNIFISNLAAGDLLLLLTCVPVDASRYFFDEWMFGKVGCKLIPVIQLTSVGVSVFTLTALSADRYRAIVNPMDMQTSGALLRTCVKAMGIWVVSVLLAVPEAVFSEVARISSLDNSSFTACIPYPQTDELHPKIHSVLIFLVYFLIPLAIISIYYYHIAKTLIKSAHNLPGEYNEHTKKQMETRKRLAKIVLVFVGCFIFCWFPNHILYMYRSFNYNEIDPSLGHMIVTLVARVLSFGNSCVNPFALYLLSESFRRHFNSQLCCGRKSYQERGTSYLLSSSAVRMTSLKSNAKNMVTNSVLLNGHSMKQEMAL

IC50 ([1]; Table 3, N-acyl derivatives) | IC50 ([2]; Table 3, N-acyl derivatives) | Compound | IC50 [1, 3] | IC50 [2, 3]
2500 nM | – | C[C@@](Cc1c[nH]c2ccccc12)(NC(=O)c1ccccc1)C(=O)NCC1(c2ccccn2)CCCCC1 [Example 32, N-{(S)-2-(1H-Indol-3-yl)-1-methyl-1-[(1-pyridin-2-yl-cyclohexylmethyl)-carbamoyl]-ethyl}-benzamide] | – | –
2500 nM | – | Cc1ccc(C(=O)N[C@@](C)(Cc2c[nH]c3ccccc23)C(=O)NCC2(c3ccccn3)CCCCC2)cc1 [Example 33, N-{(S)-2-(1H-Indol-3-yl)-1-methyl-1-[(1-pyridin-2-yl-cyclohexylmethyl)-carbamoyl]-ethyl}-4-methyl-benzamide] | – | –
2520 nM | > 10000 nM | CN(C)c1cccc(C(=O)N[C@@](C)(Cc2c[nH]c3ccccc23)C(=O)NCC2(c3ccccn3)CCCCC2)c1 [Example 42, Dimethylamino-N-{(S)-2-(1H-indol-3-yl)-1-methyl-1-[(1-pyridin-2-yl-cyclohexyl-methyl)-carbamoyl]-ethyl}-benzamide] | – | –
– | – | (S)-3-(1H-Indol-3-yl)-2-methyl-2-(nitro-trifluoromethyl-benzenesulfonylamino)-N-(1-pyridin-2-yl-cyclohexylmethyl)-propionamide [Example 167] | 758 nM | > 10000 nM
